These compounds were tested against T1, CDK9/CyclinT1 (Homo sapiens, UniProt P50750) (assay: CDK9/T1 ADPGlo Activity (ADP Glo Kinase assay, inhibitory activity)). Conditions: CDK9/CyclinT1 f.c. 6 nM; PDKtide 40 microM; ATP 10 microM; 10 min preincubation, 120 min at RT; 12 concentrations, 1:3 dilution from 5 microM.
T1 construct: purchased ProQinase/Reaction Biology, USA 0371-0345-1
Type: biochemical
Procedure: ASSAY PROTOCOL for Determination of Inhibitory Activity
The testing compound was evaluated in 12 concentrations in a 1:3 dilution series, starting from 5microM as the highest concentration.
In a white 384 microplate (Greiner bio-one, Austria #784904,) with 2 microL of 3-fold concentrated CDK9/CyclinT1 (ProQinase/Reaction Biology, USA #0371-0345-1, LOT.: 012), final concentration (f.c.) 6 nM, in 1× kinase buffer, 2 microL of compound (3× fold concentrated in f.c. 1.66% DMSO/H2O) was added and incubated at Room Temperature (RT) for 10 min. Then 2 microL of Substrate/ATP-Mix (3× PDKtide f.c. 40 microM, SignalChem Biotech, Canada via Biozol, Eching, Germany #P10-58, LOT.: L2230-7 and 3× UltraPure ATP f.c. 10 microM (ADP Glo Kinase assay, Promega GmbH, Germany #V9102)) were added, mixed and incubated for 120 min at RT.
After incubation time, 5 microL of ADP Glo reagent (ready to use, ADP Glo Kinase assay, Promega GmbH, Germany #V9102) were added, mixed and incubated for 40 min at RT.
In the last step, 10 microL of ADP Glo Detection reagent (ready to use, ADP Glo Kinase assay, Promega GmbH, Germany #V9102) were added, mixed and incubated for 30 min at RT.
GloMax Discover GM3000 Reader (Promega GmbH, Germany 9700000249) was used for the readout.
The inhibitor concentration was plotted against the luminescence to determine the IC50 using XLFit 5.5 (IDBS, Guildford) to fit to a sigmoidal dose response curve with a variable slope.

T1 sequence (P50750 whole entry): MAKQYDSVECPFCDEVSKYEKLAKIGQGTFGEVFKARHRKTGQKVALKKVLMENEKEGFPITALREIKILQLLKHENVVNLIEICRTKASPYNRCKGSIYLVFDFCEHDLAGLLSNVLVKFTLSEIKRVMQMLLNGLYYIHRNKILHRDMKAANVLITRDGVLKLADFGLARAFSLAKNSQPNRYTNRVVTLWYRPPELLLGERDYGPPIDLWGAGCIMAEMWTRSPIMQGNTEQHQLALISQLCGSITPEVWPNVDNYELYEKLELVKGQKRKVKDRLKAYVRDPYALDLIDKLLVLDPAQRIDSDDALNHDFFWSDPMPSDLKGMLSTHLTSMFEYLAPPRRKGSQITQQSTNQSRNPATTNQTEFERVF
T1 sequence (O60563 whole entry partner): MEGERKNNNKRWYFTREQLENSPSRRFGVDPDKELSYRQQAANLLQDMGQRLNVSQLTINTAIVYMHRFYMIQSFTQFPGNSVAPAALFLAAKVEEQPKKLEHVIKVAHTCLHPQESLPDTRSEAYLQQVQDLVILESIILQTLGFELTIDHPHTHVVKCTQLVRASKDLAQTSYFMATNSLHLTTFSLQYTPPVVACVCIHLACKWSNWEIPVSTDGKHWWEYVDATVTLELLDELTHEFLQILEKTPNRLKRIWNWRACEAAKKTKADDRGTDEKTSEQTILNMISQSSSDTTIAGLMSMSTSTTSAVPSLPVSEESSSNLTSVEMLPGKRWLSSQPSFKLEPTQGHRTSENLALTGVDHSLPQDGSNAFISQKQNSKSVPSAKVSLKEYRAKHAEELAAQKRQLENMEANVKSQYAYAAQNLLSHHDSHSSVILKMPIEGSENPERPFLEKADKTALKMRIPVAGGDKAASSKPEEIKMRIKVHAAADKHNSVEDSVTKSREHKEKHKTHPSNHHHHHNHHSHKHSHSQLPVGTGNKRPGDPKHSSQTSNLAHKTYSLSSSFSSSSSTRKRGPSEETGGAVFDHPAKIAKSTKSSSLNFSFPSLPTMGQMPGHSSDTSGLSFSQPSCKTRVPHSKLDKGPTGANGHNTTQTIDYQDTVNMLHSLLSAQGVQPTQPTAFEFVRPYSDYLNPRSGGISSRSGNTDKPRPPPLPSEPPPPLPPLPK

IC50 [nM] | Compound
< 20 | CS(=O)(=O)N1CCC(Nc2cc(-c3c(F)cccc3F)nn3c(Cl)cnc23)CC1 [Example #17, 3-chloro-6-(2,6-difluorophenyl)-N-(1-(methylsulfonyl)piperidin-4-yl)imidazo[1,2-b]pyridazin-8-amine]
< 20 | Fc1cccc(F)c1-c1cc(NCc2cccnc2)c2ncc(Cl)n2n1 [Example #4, 3-chloro-6-(2,6-difluorophenyl)-N-(pyridin-3-ylmethyl)imidazo[1,2-b]pyridazin-8-amine]
< 20 | Cc1cc(C)c(CNc2cc(-c3c(F)cccc3F)nn3c(Cl)cnc23)cn1 [Example #3, 3-chloro-6-(2,6-difluorophenyl)-N-((4,6-dimethylpyridin-3-yl)methyl)imidazo[1,2-b]pyridazin-8-amine]
< 200 | CC1CN(S(C)(=O)=O)CCC1Nc1cc(-c2c(F)cccc2F)nn2c(Cl)cnc12 (racemic) [Example #14, 3-chloro-6-(2,6-difluorophenyl)-N-(3-methyl-1-(methylsulfonyl)piperidin-4-yl)imidazo[1,2-b]pyridazin-8-amine]
< 200 | CC1CNCCC1Nc1cc(-c2c(F)cccc2F)nn2c(Cl)cnc12 (racemic) [Example #15, 3-chloro-6-(2,6-difluorophenyl)-N-(3-methylpiperidin-4-yl)imidazo[1,2-b]pyridazin-8-amine]
< 200 | CN1CCN([C@H]2CC[C@H](Nc3cc(-c4c(F)cccc4F)nn4c(Cl)cnc34)CC2)CC1 [Example #1, 3-chloro-6-(2,6-difluorophenyl)-N-((1r,4r)-4-(4-methylpiperazin-1-yl)cyclohexyl)imidazo[1,2-b]pyridazin-8-amine]
< 20 | Fc1cccc(F)c1-c1cc(N[C@H]2CC[C@H](N3CCOCC3)CC2)c2ncc(Cl)n2n1 [Example #11, 3-chloro-6-(2,6-difluorophenyl)-N-((1r,4r)-4-morpholinocyclohexyl)imidazo[1,2-b]pyridazin-8-amine]
< 200 | NC1CCC(Nc2c(Cl)c(-c3c(F)cccc3F)nn3c(Cl)cnc23)CC1 (stereo not shown) [Example #8, (1r,4r)-N1-(3,7-dichloro-6-(2,6-difluorophenyl)imidazo[1,2-b]pyridazin-8-yl)cyclohexane-1,4-diamine]
< 200 | CC1CN(C(=O)OC(C)(C)C)CCC1Nc1cc(-c2c(F)cccc2F)nn2c(Cl)cnc12 (racemic) [Example #16, tert-butyl-4-((3-chloro-6-(2,6-difluorophenyl)imidazo[1,2-b]pyridazin-8-yl)amino)-3-methylpiperidine-1-carboxylate]
< 20 | CN1CCC(Nc2cc(-c3c(F)cccc3F)nn3c(Cl)cnc23)CC1 [Example #10, 3-chloro-6-(2,6-difluorophenyl)-N-(1-methylpiperidin-4-yl)imidazo[1,2-b]pyridazin-8-amine]
< 200 | N[C@H]1CC[C@H](Nc2cc(-c3c(F)cccc3F)nn3c(Cl)cnc23)CC1 [Example #9, (1r,4r)-N1-(3-chloro-6-(2,6-difluorophenyl)imidazo[1,2-b]pyridazin-8-yl)cyclohexane-1,4-diamine]
< 20 | CN1CCC(Nc2cc(-c3c(F)cccc3F)nn3c(Cl)cnc23)C1 (racemic) [Example #18, 3-chloro-6-(2,6-difluorophenyl)-N-(1-methylpyrrolidin-3-yl)imidazo[1,2-b]pyridazin-8-amine]
< 200 | CN(C)[C@H]1CC[C@H](Nc2cc(-c3c(F)cccc3F)nn3c(Cl)cnc23)CC1 [Example #12, (1r,4r)-N1-(3-chloro-6-(2,6-difluorophenyl)imidazo[1,2-b]pyridazin-8-yl)-N4,N4-dimethylcyclohexane-1,4-diamine]

Source: US20260335313A1, “NOVEL CDK9 INHIBITORS” (Origenis GmbH, priority 2022, published 2026)
